Results from patent publication US20110160272A1, “METHODS AND COMPOSITIONS FOR USE OF ANGIOGENESIS INHIBITORS IN THE PREVENTION AND/OR CONTROL OF EPILEPSY” (priority 2004, published 2011).

Test system: KASE rats
Assay: Effect of angiogenesis inhibitor on spontaneous seizure development after kainic acid-induced status epilepticus (KASE)
Type: in vivo, rat
Conditions: KASE rats (n=4); twice daily injections for fourteen consecutive days beginning one week following KASE; first three weeks of monitoring, daily 8-hour observation sessions; relative to untreated KASE or control rats
From the text: We have administered HET0016, an inhibitor of angiogenesis, during the “latent period” that follows KASE and precedes the emergence of spontaneous seizures, to assess whether the development of spontaneous seizures could be impeded. Optimal doses for achieving antiangiogenesis have been established for some of these compounds in other pathological contexts and we have acquired some knowledge of the progression of angiogenesis following KASE using our temporal BrdU assay. On the basis of these observations, we administered a proven antiangiogenic compound at the optimal dosage established in other pathological contexts. This compound was administered to KASE rats (n=4) via twice daily injections for fourteen consecutive days, beginning one week following KASE. Four untreated KASE rats (n=4) received sham injections of diluent and were processed in parallel. Control rats (n=2) received neither KASE nor antiangiogenic therapy. The occurrence of spontaneous seizures in these cohorts was monitored during daily during 8-hour observation sessions beginning one week following KASE, and continues to the present.

## CCCCc1ccc(N=CNO)c(C)c1 [HET0016]
  development of spontaneous seizures (cumulative seizures, FIG. 7): impeded the development of spontaneous seizures
